Data as given in the NIST ThermoML archive (doi:10.1016/j.jct.2006.01.011).

Key:
[1] = refractive index (Na D-line) (dimensionless); conditions: 293.15 K; 101.33 kPa; Liquid; Standard Abbe refractometry
[2] = 293.15 K, 101.33 kPa, Liquid; for viscosity: Capillary tube (Ostwald / Ubbelohde) method
[3] = wn = mass fraction of the nth substance listed; conditions: 293.15 K, 101.33 kPa, Liquid; for viscosity: Capillary tube (Ostwald / Ubbelohde) method; for mass density: Vibrating tube method
[4] = cn = amount concentration of the nth substance listed, in mol/dm3; conditions: 293.15 K, 101 kPa, Liquid; for viscosity: Capillary tube (Ostwald / Ubbelohde) method; for electrical conductivity: Frequency=0.001 MHz, digital bridge-type conductivity meter; for mass density: Vibrating tube method

OCCO [1,2-ethanediol]
Conditions | refractive index | viscosity [mPa·s]
[1] | 1.4319 | –
[2] | – | 20.81

Conditions | mass density [kg/m3]
[2], Vibrating tube method | 1113.23

OCCO [1,2-ethanediol] + O
[3]
Conditions | mass density [kg/m3] | viscosity [mPa·s]
w1 = 0.1 | 1011.1 | 1.293
w1 = 0.2 | 1024.49 | 1.671
w1 = 0.3 | – | 2.177
w1 = 0.4 | 1049.89 | 2.837
w1 = 0.5 | 1062.42 | 3.558
w1 = 0.6 | – | 4.724
w1 = 0.7 | 1085.2 | 6.36
w1 = 0.8 | 1095.34 | 8.003
w1 = 0.9 | 1103.7 | 14

O [water]
Conditions | viscosity [mPa·s]
[2] | 1.008

O [water] + OCCO
Conditions | viscosity [mPa·s]
[3], w2 = 0 | 1.008

O=S(=O)([O-])[O-].[Zn+2] [zinc sulfate] + O
[4]
Conditions | electrical conductivity [S/m] | mass density [kg/m3] | viscosity [mPa·s]
c1 = 5e-05 | 0.00119 | 998.22 | –
c1 = 0.00011 | 0.00229 | 998.23 | –
c1 = 0.00019 | 0.00391 | 998.25 | –
c1 = 0.00042 | 0.0084 | 998.29 | –
c1 = 0.00063 | 0.01218 | 998.32 | –
c1 = 0.00083 | 0.0154 | 998.36 | –
c1 = 0.00101 | 0.01833 | 998.39 | –
c1 = 0.00127 | 0.02201 | 998.41 | –
c1 = 0.0084 | – | 999.63 | 1.015
c1 = 0.0194 | – | 1001.48 | 1.022
c1 = 0.0403 | – | 1004.95 | 1.036
c1 = 0.0545 | – | 1007.37 | 1.045
c1 = 0.0714 | – | 1009.43 | 1.054
c1 = 0.0795 | – | 1011.4 | 1.062
c1 = 0.0979 | – | 1014.39 | 1.074
c1 = 0.1391 | – | 1021.1 | 1.103
c1 = 0.1756 | – | 1027.12 | 1.127
c1 = 0.1998 | – | 1030.93 | 1.144
